Results reported in US20100317528A1, “HERBICIDE CONTAINING BENZOYLPYRAZOLE COMPOUND” (ISHIHARA SANGYO KAISHA, LTD., priority 2006, published 2010).

What was measured:
Assay type in all cases: in vivo
[1] = system: crabgrass (Digitaria sanquinalis L.); assay: Test Example 2: soil application on the day after sowing, crabgrass; conditions: 250 g/ha active ingredient, observed 19th to 28th day after application; for inhibition at 250 g/ha: Digitaria, read-out: Growth inhibition rate (%) Crabgrass
Excerpt: (§1) Upland field soil was put into a 1/170,000 hectare pot, and seeds of various plants barnyardgrass (Echinochloa crus-galli L.), crabgrass (Digitaria sanquinalis L.), green foxtail (Setaria viridis L.), redroot pigweed (Amaranthus retroflexus L.), prickly sida (Sida spinosa L.), velvetleaf (Abutilon theophrasti MEDIC.), rice (Oryza sativa L.), wheat (Triticum spp.), corn (Zea mays L.) and soybean (Glycine max Merr.)) were sown. On the day after sowing, wettable powders or emulsifiable concentrates of the compounds of the above formula (I) prepared in accordance with a conventional preparation method, were weighed so that the active ingredients became the prescribed amounts, and diluted with water in an amount corresponding to 500 liter per 1 hectare, followed by soil application with a small sprayer.
(§2) On the 19th to 28th day after the application, the state of growth of the respective plants was visually observed, and the herbicidal effect was evaluated by a growth inhibition rate (%) of from 0 (equivalent to the non-treated area) to 100% (complete kill).

[2] = system: prickly sida (Sida spinosa L.); assay: Test Example 1: foliar treatment, upland pot test, prickly sida; conditions: 31 g/ha active ingredient, observed 17th to 25th day after application; for inhibition at 31 g/ha: Sida spinosa, read-out: Growth inhibition rate (%) Prickly sida
Excerpt: (§3) Upland field soil was put into a 1/170,000 hectare pot, and seeds of various plants were sown. When the respective plants reached predetermined leaf stage ((1) barnyardgrass (Echinochloa crus-galli L.): 1.0 to 3.0 leaf stage, (2) crabgrass (Digitaria sanguinalis L.): 1.0 to 3.0 leaf stage, (3) green foxtail (Setaria viridis L.): 1.0 to 3.0 leaf stage, (4) redroot pigweed (Amaranthus retroflexus L.): cotyledon stage to 2.0 leaf stage, (5) prickly sida (Sida spinosa L.): cotyledon stage to 1.0 leaf stage, (6) velvetleaf (Abutilon theophrasti MEDIC.): 0.1 to 1.5 leaf stage, (7) rice (Oryza sativa L.): 1.0 to 3.0 leaf stage, (8) wheat (Triticum spp.): 1.7 to 3.4 leaf stage, (9) corn (Zea mays L.): 2.0 to 3.5 leaf stage, (10) soybean (Glycine max Merr.): primary leaf stage to 0.4 leaf stage), wettable powders or emulsifiable concentrates of the compounds of the above formula (I) prepared in accordance with a conventional preparation method, were weighed so that the active ingredients became the prescribed amounts, and diluted with water in an amount corresponding to 500 liter per 1 hectare (containing 0.1 vol % of “KUSARINOH”, manufactured by NIHON NOHYAKU CO., LTD. as an agricultural spreader). The spray solutions thus prepared were applied for foliar treatment by a small sprayer.
(§4) On the 17th to 25th day after application, the state of growth of the respective plants was visually observed, and the herbicidal effect was evaluated by a growth inhibition rate (%) of 0 (equivalent to the non-treated area) to 100% (complete kill).

[3] = system: velvetleaf (Abutilon theophrasti MEDIC.); assay: Test Example 2: soil application on the day after sowing, velvetleaf; conditions: 250 g/ha active ingredient, observed 19th to 28th day after application; for inhibition at 250 g/ha: Abutilon theophrasti, read-out: Growth inhibition rate (%) Velvetleaf
Excerpt: as §1, §2

[4] = system: barnyardgrass (Echinochloa crus-galli L.); assay: Test Example 2: soil application on the day after sowing, barnyardgrass; conditions: 250 g/ha active ingredient, observed 19th to 28th day after application; for inhibition at 250 g/ha: Echinochloa crus-galli, read-out: Growth inhibition rate (%) Barnyardgrass
Excerpt: as §1, §2

[5] = system: crabgrass (Digitaria sanguinalis L.); assay: Test Example 1: foliar treatment, upland pot test, crabgrass; conditions: 31 g/ha active ingredient, observed 17th to 25th day after application; for inhibition at 31 g/ha: Digitaria sanguinalis, read-out: Growth inhibition rate (%) Crabgrass
Excerpt: as §3, §4

wheat (Triticum spp.) [6] = assay: Test Example 1: foliar treatment, upland pot test, wheat; conditions: 31 g/ha active ingredient, observed 17th to 25th day after application; for inhibition at 31 g/ha: Triticum, read-out: Growth inhibition rate (%) Wheat
Excerpt: as §3, §4

corn (Zea mays L.) [7] = assay: Test Example 1: foliar treatment, upland pot test, corn; conditions: 31 g/ha active ingredient, observed 17th to 25th day after application; for inhibition at 31 g/ha: Zea mays, read-out: Growth inhibition rate (%) Corn
Excerpt: as §3, §4

[8] = system: green foxtail (Setaria viridis L.); assay: Test Example 2: soil application on the day after sowing, green foxtail; conditions: 250 g/ha active ingredient, observed 19th to 28th day after application; for inhibition at 250 g/ha: Setaria viridis, read-out: Growth inhibition rate (%) Green foxtail
Excerpt: as §1, §2

[9] = system: velvetleaf (Abutilon theophrasti MEDIC.); assay: Test Example 1: foliar treatment, upland pot test, velvetleaf; conditions: 31 g/ha active ingredient, observed 17th to 25th day after application; for inhibition at 31 g/ha: Abutilon theophrasti, read-out: Growth inhibition rate (%) Velvetleaf
Excerpt: as §3, §4

rice (Oryza sativa L.) [10] = assay: Test Example 1: foliar treatment, upland pot test, rice; conditions: 31 g/ha active ingredient, observed 17th to 25th day after application; for inhibition at 31 g/ha: Oryza sativa, read-out: Growth inhibition rate (%) Rice
Excerpt: as §3, §4

[11] = system: soybean (Glycine max Merr.); assay: Test Example 2: soil application on the day after sowing, soybean; conditions: 250 g/ha active ingredient, observed 19th to 28th day after application; for inhibition at 250 g/ha: Glycine max, read-out: Growth inhibition rate (%) Soybean
Excerpt: as §1, §2

[12] = system: barnyardgrass (Echinochloa crus-galli L.); assay: Test Example 1: foliar treatment, upland pot test, barnyardgrass; conditions: 31 g/ha active ingredient, observed 17th to 25th day after application; for inhibition at 31 g/ha: Echinochloa crus-galli, read-out: Growth inhibition rate (%) Barnyardgrass
Excerpt: as §3, §4

corn (Zea mays L.) [13] = assay: Test Example 2: soil application on the day after sowing, corn; conditions: 250 g/ha active ingredient, observed 19th to 28th day after application; for inhibition at 250 g/ha: Zea mays, read-out: Growth inhibition rate (%) Corn
Excerpt: as §1, §2

rice (Oryza sativa L.) [14] = assay: Test Example 2: soil application on the day after sowing, rice; conditions: 250 g/ha active ingredient, observed 19th to 28th day after application; for inhibition at 250 g/ha: Oryza sativa, read-out: Growth inhibition rate (%) Rice
Excerpt: as §1, §2

[15] = system: redroot pigweed (Amaranthus retroflexus L.); assay: Test Example 1: foliar treatment, upland pot test, redroot pigweed; conditions: 31 g/ha active ingredient, observed 17th to 25th day after application; for inhibition at 31 g/ha: Amaranthus retroflexus, read-out: Growth inhibition rate (%) Redroot pigweed
Excerpt: as §3, §4

wheat (Triticum spp.) [16] = assay: Test Example 2: soil application on the day after sowing, wheat; conditions: 250 g/ha active ingredient, observed 19th to 28th day after application; for inhibition at 250 g/ha: Triticum, read-out: Growth inhibition rate (%) Wheat
Excerpt: as §1, §2

[17] = system: prickly sida (Sida spinosa L.); assay: Test Example 2: soil application on the day after sowing, prickly sida; conditions: 250 g/ha active ingredient, observed 19th to 28th day after application; for inhibition at 250 g/ha: Sida spinosa, read-out: Growth inhibition rate (%) Prickly sida
Excerpt: as §1, §2

[18] = system: green foxtail (Setaria viridis L.); assay: Test Example 1: foliar treatment, upland pot test, green foxtail; conditions: 31 g/ha active ingredient, observed 17th to 25th day after application; for inhibition at 31 g/ha: Setaria viridis, read-out: Growth inhibition rate (%) Green foxtail
Excerpt: as §3, §4

[19] = system: redroot pigweed (Amaranthus retroflexus L.); assay: Test Example 2: soil application on the day after sowing, redroot pigweed; conditions: 250 g/ha active ingredient, observed 19th to 28th day after application; for inhibition at 250 g/ha: Amaranthus retroflexus, read-out: Growth inhibition rate (%) Redroot pigweed
Excerpt: as §1, §2

[20] = system: soybean (Glycine max Merr.); assay: Test Example 1: foliar treatment, upland pot test, soybean; conditions: 31 g/ha active ingredient, observed 17th to 25th day after application
Excerpt: as §3, §4

Compound | Growth inhibition rate (%) Crabgrass [1] | Growth inhibition rate (%) Prickly sida [2] | Growth inhibition rate (%) Velvetleaf [3] | Growth inhibition rate (%) Barnyardgrass [4] | Growth inhibition rate (%) Crabgrass [5] | Growth inhibition rate (%) Wheat (wheat (Triticum spp.) [6]) | Growth inhibition rate (%) Corn (corn (Zea mays L.) [7]) | Growth inhibition rate (%) Green foxtail [8] | Growth inhibition rate (%) Velvetleaf [9] | Growth inhibition rate (%) Rice (rice (Oryza sativa L.) [10]) | Growth inhibition rate (%) Soybean [11] | Growth inhibition rate (%) Barnyardgrass [12] | Growth inhibition rate (%) Corn (corn (Zea mays L.) [13]) | Growth inhibition rate (%) Rice (rice (Oryza sativa L.) [14]) | Growth inhibition rate (%) Redroot pigweed [15] | Growth inhibition rate (%) Wheat (wheat (Triticum spp.) [16]) | Growth inhibition rate (%) Prickly sida [17] | Growth inhibition rate (%) Green foxtail [18] | Growth inhibition rate (%) Redroot pigweed [19] | inhibition at 250 g/ha [1] | other results
COC(=O)Cc1c(S(C)(=O)=O)ccc(C(=O)c2cnn(C)c2O)c1C [compound 156] | 95% | 60% | 80% | 60% | 90% | 0% | 0% | 50% | 80% | 70% | 0% | 75% | 0% | 60% | 70% | 0% | 80% | 70% | 100% | – | –
CCn1ncc(C(=O)c2ccc(S(C)(=O)=O)c(C(=O)OC)c2C)c1O [compound 127] | – | – | – | – | – | – | – | – | – | – | – | – | – | – | – | – | – | – | – | 100% | inhibition at 31 g/ha [2]: 80%; inhibition at 250 g/ha [3]: 70%; inhibition at 250 g/ha [4]: 85%; inhibition at 31 g/ha [5]: 90%; inhibition at 31 g/ha (wheat (Triticum spp.) [6]): 0%; inhibition at 31 g/ha (corn (Zea mays L.) [7]): 40%; inhibition at 250 g/ha [8]: 100%; inhibition at 31 g/ha [9]: 100%; inhibition at 31 g/ha (rice (Oryza sativa L.) [10]): 90%; inhibition at 250 g/ha [11]: 50%; inhibition at 31 g/ha [12]: 90%; inhibition at 250 g/ha (corn (Zea mays L.) [13]): 0%; inhibition at 250 g/ha (rice (Oryza sativa L.) [14]): 70%; inhibition at 31 g/ha [15]: 100%; inhibition at 250 g/ha (wheat (Triticum spp.) [16]): 10%; inhibition at 250 g/ha [17]: 60%; inhibition at 31 g/ha [18]: 90%; inhibition at 250 g/ha [19]: 100%
COCCOc1c(S(C)(=O)=O)ccc(C(=O)c2c(C)nn(C(C)C)c2O)c1C [compound 260] | 100% | 30% | 70% | 100% | 80% | 0% | 0% | 100% | 70% | 70% | – | 95% | 60% | 100% | 90% | 20% | 60% | 70% | 100% | – | Growth inhibition rate (%) Soybean [20]: 40%
COCC(C)Oc1c(S(C)(=O)=O)ccc(C(=O)c2cnn(C)c2O)c1C (centres unmarked) [compound 254] | 98% | 40% | 50% | 100% | 50% | 0% | 0% | 10% | 80% | 40% | 0% | 40% | 0% | 75% | 95% | – | 60% | 50% | 100% | – | Growth inhibition rate (%) Soybean [20]: 80%
CCOc1c(S(C)(=O)=O)ccc(C(=O)c2cnn(C)c2O)c1C [compound 144] | – | – | – | – | – | – | – | – | – | – | – | – | – | – | – | – | – | – | – | 100% | inhibition at 31 g/ha [2]: 100%; inhibition at 250 g/ha [3]: 50%; inhibition at 250 g/ha [4]: 80%; inhibition at 31 g/ha [5]: 95%; inhibition at 31 g/ha (wheat (Triticum spp.) [6]): 20%; inhibition at 31 g/ha (corn (Zea mays L.) [7]): 10%; inhibition at 250 g/ha [8]: 70%; inhibition at 31 g/ha [9]: 100%; inhibition at 31 g/ha (rice (Oryza sativa L.) [10]): 75%; inhibition at 250 g/ha [11]: 0%; inhibition at 31 g/ha [12]: 98%; inhibition at 250 g/ha (corn (Zea mays L.) [13]): 0%; inhibition at 250 g/ha (rice (Oryza sativa L.) [14]): 70%; inhibition at 31 g/ha [15]: 100%; inhibition at 250 g/ha (wheat (Triticum spp.) [16]): 0%; inhibition at 250 g/ha [17]: 50%; inhibition at 31 g/ha [18]: 100%; inhibition at 250 g/ha [19]: 75%
